Experimental data as given in the supplement of paper PMC10331698.
± gives the standard deviation of the averaged measurements.

Key:
Experiment in all cases: level (log10 ratio to DMSO vehicle control); higher = higher biomarker level / cell amount than vehicle control
Conditions in all cases: in DMSO
[1] = compound: O=C(O)C(F)(F)C(F)(F)OC(F)(F)F [Perfluoro-3-methoxypropanoic acid]
Experimental: (§1)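 BioMAP Diversity Plus panel of 12 human primary cell co-culture systems (3C, 4H, LPS, SAg, BT, BF4T, BE3C, CASM3C, HDF3CGF, KF3CT, MyoF, Mphg). Compounds were added 1 h before stimulation and left for 24 h (MyoF 48 h; BT 72 h for soluble read-outs or 6 d for IgG). Biomarkers were read by ELISA, cytotoxicity by SRB, PBMC viability and proliferation by Alamar Blue. Each well value was divided by the mean of 8 DMSO control wells on the same plate and log10 transformed; duplicate blinded samples were tested at 4 concentrations.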

[2] = compound: C=CC(=O)OCC(F)(F)C(F)(F)C(F)(F)C(F)(F)C(F)(F)C(F)(F)C(F)(F)F [1H,1H-Perfluorooctyl acrylate]
Experimental: as §1

[3] = compound: O=S(=O)(O)C(F)(F)C(F)(F)C(F)(F)C(F)(F)C(F)(F)C(F)(F)F [Perfluorohexanesulfonic acid]
Experimental: as §1

Perfluoroheptanoic acid = compound: O=C(O)C(F)(F)C(F)(F)C(F)(F)C(F)(F)C(F)(F)C(F)(F)F [Perfluoroheptanoic acid]
Experimental: as §1

Perfluoro-1-iodohexane = compound: FC(F)(F)C(F)(F)C(F)(F)C(F)(F)C(F)(F)C(F)(F)I [Perfluoro-1-iodohexane]
Experimental: as §1

[4] = compound: O=C(O)C(F)(F)OC(F)(F)C(F)(F)OC(F)(F)C(=O)O [Perfluoro-3,6-dioxaoctane-1,8-dioic acid]
Experimental: as §1

| Test System | level (log10) ([1]; 6700 nM) | level (log10) ([1]; 20000 nM) | level (log10) ([1]; 60000 nM) | level (log10) ([2]; 6700 nM) | level (log10) ([2]; 20000 nM) | level (log10) ([2]; 60000 nM) | level (log10) ([3]; 6700 nM) | level (log10) ([3]; 20000 nM) | level (log10) ([3]; 60000 nM) | level (log10) (Perfluoroheptanoic acid; 6700 nM) | level (log10) (Perfluoroheptanoic acid; 20000 nM) | level (log10) (Perfluoroheptanoic acid; 60000 nM) | level (log10) (Perfluoro-1-iodohexane; 6700 nM) | level (log10) (Perfluoro-1-iodohexane; 20000 nM) | level (log10) (Perfluoro-1-iodohexane; 60000 nM) | level (log10) ([4]; 6700 nM) | level (log10) ([4]; 20000 nM) | level (log10) ([4]; 60000 nM) |
| --- | --- | --- | --- | --- | --- | --- | --- | --- | --- | --- | --- | --- | --- | --- | --- | --- | --- | --- |
| BE3C:Keratin 8/18 | -0.0155 ± 0.0092 | -0.006 ± 0.017 | -0.003 ± 0.024 | -0.011 ± 0.023 | -0.0145 ± 0.029 | -0.0045 ± 0.022 | 0.0085 ± 0.0035 | 0.0005 ± 0.0064 | -0.018 ± 0.0085 | -0.0135 ± 0.005 | -0.0135 ± 0.0078 | -0.0025 ± 0.012 | -0.007 ± 0.037 | -0.0105 ± 0.0078 | 0.005 ± 0.024 | -0.0105 ± 0.0092 | -0.004 ± 0.0014 | 0.0005 ± 0.022 |
| 3C:CD106/VCAM-1 | -0.0015 ± 0.0064 | -0.009 ± 0.024 | 0.0015 ± 0.018 | -0.0215 ± 0.023 | -0.0245 ± 0.021 | -0.012 ± 0.0028 | -0.0085 ± 0.026 | -0.029 ± 0.0042 | -0.014 ± 0.025 | 0.0165 ± 0.018 | -0.02 ± 0.0042 | -0.003 ± 0.014 | 0.003 ± 0.024 | 0.0075 ± 0.018 | 0 ± 0.047 | 0.0105 ± 0.016 | -0.002 ± 0.02 | 0.0015 ± 0.0064 |
| CASM3C:LDLR | 0.0105 ± 0.016 | 0.01 ± 0.028 | 0.013 ± 0.013 | 0.011 | 0.006 ± 0.0099 | 0.016 ± 0.016 | -0.014 ± 0.0042 | -0.0055 ± 0.0035 | 0.0155 ± 0.039 | 0.0175 ± 0.0092 | 0.012 ± 0.016 | 0.0125 ± 0.039 | -0.008 ± 0.0057 | 0.0155 ± 0.016 | 0.005 ± 0.028 | 0.015 ± 0.034 | -0.0115 ± 0.0035 | 0.0155 ± 0.015 |
| HDF3CGF:CXCL11/I-TAC | -0.001 ± 0.023 | 0.0165 ± 0.012 | 0.0105 ± 0.00071 | -0.017 ± 0.011 | -0.0275 ± 0.037 | -0.063 ± 0.011 | 0.01 | -0.004 ± 0.0099 | -0.004 ± 0.021 | -0.0165 ± 0.013 | 0.003 ± 0.011 | 0.01 ± 0.016 | -0.0215 ± 0.011 | -0.0305 ± 0.016 | -0.183 ± 0.15 | 0.0105 ± 0.011 | 0.0235 ± 0.012 | 0.012 ± 0.0042 |
| MyoF:Collagen III | 0.004 ± 0.0099 | 0.0095 ± 0.0078 | 0.013 ± 0.0014 | 0.0005 ± 0.013 | -0.007 ± 0.024 | -0.0055 ± 0.021 | 0.0035 ± 0.005 | -0.013 ± 0.0028 | -0.0125 ± 0.033 | -0.013 ± 0.018 | -0.011 ± 0.018 | -0.0055 ± 0.0078 | -0.0225 ± 0.0064 | -0.039 ± 0.0057 | -0.132 ± 0.036 | 0.0035 ± 0.0078 | -0.005 ± 0.017 | 0.0065 ± 0.015 |
| lMphg:sIL-10 | -0.0385 ± 0.013 | -0.064 ± 0.024 | -0.0485 ± 0.044 | 0.018 ± 0.02 | -0.023 ± 0.05 | -0.0565 ± 0.042 | -0.0345 ± 0.061 | -0.073 ± 0.1 | -0.239 ± 0.025 | -0.017 ± 0.018 | 0.007 ± 0.027 | -0.0945 ± 0.032 | -0.0575 ± 0.1 | -0.048 ± 0.0042 | -0.047 ± 0.0057 | -0.0425 ± 0.011 | -0.0615 ± 0.036 | -0.058 ± 0.055 |
| 3C:CD54/ICAM-1 | -0.001 ± 0.021 | -0.034 ± 0.0028 | -0.0055 ± 0.029 | 0.002 ± 0.0014 | 0 ± 0.0099 | 0 ± 0.018 | -0.002 ± 0.014 | -0.008 ± 0.0042 | 0.005 ± 0.0099 | 0.0025 ± 0.0035 | -0.0095 ± 0.0092 | 0.008 ± 0.023 | 0 ± 0.0057 | 0.0025 ± 0.0078 | 0.012 ± 0.0014 | -0.0005 ± 0.0092 | -0.019 ± 0.0085 | -0.0135 ± 0.0035 |
| HDF3CGF:CXCL8/IL-8 | 0.0045 ± 0.0064 | 0.0125 ± 0.0035 | 0.003 ± 0.017 | 0.0045 ± 0.0064 | 0.0045 ± 0.0064 | 0.0095 ± 0.0035 | 0.0045 ± 0.013 | 0.0035 ± 0.015 | 0.0065 ± 0.016 | -0.0055 ± 0.0078 | -0.0055 ± 0.0064 | 0.0095 ± 0.013 | -0.0055 ± 0.0021 | -0.002 ± 0.0057 | -0.024 ± 0.037 | -0.0005 ± 0.0021 | 0.0135 ± 0.005 | 0.017 ± 0.0042 |
| KF3CT:SRB | -0.0145 ± 0.0035 | -0.009 ± 0.0014 | -0.002 ± 0.013 | -0.007 ± 0.0014 | -0.0055 ± 0.00071 | -0.002 ± 0.0071 | -0.0015 ± 0.0021 | -0.0095 ± 0.005 | 0.0005 ± 0.023 | -0.0065 ± 0.005 | -0.006 ± 0.0085 | 0.007 ± 0.016 | -0.0075 ± 0.00071 | -0.0065 ± 0.00071 | 0 ± 0.011 | -0.0185 ± 0.011 | -0.0185 ± 0.0092 | 0.0015 ± 0.012 |
| lMphg:CD62E/E-Selectin | -0.012 ± 0.018 | -0.037 ± 0.03 | 0.019 ± 0.075 | -0.0075 ± 0.023 | 0.004 ± 0.017 | -0.004 ± 0.021 | 0.0145 ± 0.00071 | 0.019 ± 0.0099 | 0.0955 ± 0.035 | -0.026 ± 0.0028 | 0 ± 0.024 | 0.025 ± 0.018 | 0.005 ± 0.0042 | 0.018 ± 0.02 | 0.0305 ± 0.033 | -0.027 ± 0.034 | -0.018 ± 0.016 | 0.0185 ± 0.0092 |
| 3C:CCL2/MCP-1 | -0.0125 ± 0.0064 | -0.0095 ± 0.00071 | 0.0165 ± 0.0064 | -0.0085 ± 0.00071 | -0.009 ± 0.023 | 0.017 ± 0.028 | 0.0055 ± 0.011 | 0.007 ± 0.017 | 0.017 ± 0.031 | 0.0015 ± 0.015 | -0.009 ± 0.013 | 0.032 ± 0.045 | -0.0105 ± 0.0021 | -0.006 ± 0.02 | 0.003 ± 0.047 | 0.002 ± 0.016 | -0.007 ± 0.023 | 0.01 ± 0.03 |
| CASM3C:CD87/uPAR | -0.021 ± 0.048 | -0.0235 ± 0.035 | -0.031 ± 0.033 | 0.0095 ± 0.028 | 0.0135 ± 0.021 | 0.0235 ± 0.019 | 0.007 ± 0.0014 | 0.001 ± 0.0057 | 0.0065 ± 0.012 | -0.0005 ± 0.0078 | -0.019 ± 0.031 | -0.0055 ± 0.036 | 0 ± 0.0085 | -0.0105 ± 0.03 | 0.003 ± 0.021 | -0.023 ± 0.03 | -0.023 ± 0.018 | -0.0255 ± 0.00071 |
| HDF3CGF:M-CSF | -0.005 ± 0.0085 | -0.0035 ± 0.0021 | -0.005 ± 0.0085 | 0.0085 ± 0.015 | -0.006 ± 0.0057 | -0.053 ± 0.069 | 0.001 ± 0.0085 | -0.012 ± 0.0028 | 0.0015 ± 0.00071 | -0.009 ± 0.0099 | 0.0025 ± 0.015 | 0.01 ± 0.0014 | 0.0155 ± 0.019 | 0.024 ± 0.0028 | -0.021 ± 0.034 | -0.007 ± 0.014 | -0.003 ± 0.0028 | -0.0045 ± 0.00071 |
| KF3CT:CXCL9/MIG | 0.0125 ± 0.0064 | 0.008 ± 0.0099 | 0.021 ± 0.0014 | 0.005 ± 0.0042 | -0.0035 ± 0.0035 | 0.008 ± 0.0099 | 0.001 ± 0.021 | 0.002 ± 0.0071 | 0.013 ± 0.013 | -0.0085 ± 0.005 | -0.0015 ± 0.0035 | 0.011 ± 0.013 | -0.002 | -0.0125 ± 0.00071 | 0.0025 ± 0.012 | -0.0035 ± 0.0092 | 0.0065 ± 0.0078 | 0.017 ± 0.0099 |
